Laboratory results from publication PMC5118688 (Scientific Reports, 2016).
≈ marks a conversion by molar mass, not a printed value. Where two headings read alike, the source gives them in different places.

What was measured:
[1] = tested on: mAb3C9; test: mimotope-based dcELISA (mAb3C9 and M20-GST-BAD/SA-HRP competitor); format: binding, mouse; conditions: for CR (%): M20-GST-BAD, (IC50 of parathion-methyl/IC50 of pesticide) × 100; for LOD (IC10): mAb3C9, M20-GST-BAD; for IC50 ± SD: mAb3C9, competitor M20-GST-BAD
Description: To develop a mimotope-based dcELISA, the biotinylated mimotope fusion protein was firstly assembled with streptavidin-HRP conjugate (SA-HRP) utilized the high affinity of biotin and streptavidin. The assembly process was just mixing a certain amount of biotinylated mimotope fusion protein with SA-HRP and incubating them at 4 °C overnight before use as an HRP-labeled competitor.
An innovative mimotope-based dcELISA was developed and performed as below. […] TMB solution (100 μL/well) was added and incubated for 15 min at 37 °C.
The optimal condition for mimotope-based dcELISA was optimized as chemosynthesized antigen-based dcELISA. The selectivity and sensitivity of the developed mimotope-based dcELISA for the 24 OPs were also determined under the optimum condition.

[2] = ref Hua et al. 11; cited from earlier work
[3] = tested on: mAb against a generic hapten (3-(4-dimethoxyphosphorothioyloxy phenyl)propanoic acid); conditions: ref Liu et al. 10; cited from earlier work
[4] = tested on: mAb4D11; test: optimized mAb4D11-based dcELISA; conditions: mAb4D11-based dcELISA
Description: (§1) The dcELISA procedure was performed as below. First, the plate (Costar, Corning Inc., New York, USA) was coated with coating antigen (100 μL/well in 1 × PBS) for 1 h at 37 °C. Then, the wells were washed four times with PBST (1 × PBS with 0.05% (v/v) Tween-20) and blocked with 2% skim milk (200 μL/well) for 1 h at 37 °C. After washing four times, 50 μL analyte in MeOH-water solution and 50 μL mAb-HRP in PBS were added. The plate was incubated for 1 h at 37 °C and then washed four times before adding TMB solution (100 μL/well). After incubation for 15 min at 37 °C, 50 μL/well of H2SO4 (2 mol/L) was added to stop the reaction, and the absorbance was recorded at 450 nm using the Model 680 plate reader (Bio-Rad, USA).
(§2) 18 kinds of O,O-dimethyl OPs and 6 kinds of O,O-diethyl OPs were purchased from National Standards of China and used for the selectivity and sensitivity study using the optimized dcELISA procedure. […] The IC50 value and detection limit of each OP were calculated. The CR value, which was used to evaluate the selectivity of the method, was calculated using the following equation:

[5] = tested on: mAb3C9; test: optimized chemosynthesized antigen-based dcELISA (mAb3C9 and hapten 6-OVA); conditions: for CR (%): Hapten 6-OVA, (IC50 of parathion-methyl/IC50 of pesticide) × 100; for LOD (IC10): mAb3C9, Hapten 6-OVA; for IC50 ± SD: mAb3C9, coating antigen Hapten 6-OVA
Description: as §1, §2

[6] = ref Liang et al. 9; cited from earlier work

Row | SMILES | CR (%) [1] | LOD (IC10) [1] | IC50 ± SD [1] | IC50 [2] | IC50 [3] | CR (%) [4] | IC50 [4] | LOD [4] | CR (%) [5] | LOD (IC10) [5] | IC50 ± SD [5] | IC50 [6]
1 | COP(=S)(OC)Oc1nc(Cl)c(Cl)cc1Cl [Chlorpyrifos-methyl] | 122.8% | 0.0009 µg/mL | 0.0041 ± 0.0002 µg/mL (≈ 0.0127 µM) | > 100 µg/mL | 0.81 µg/mL (≈ 2.51 µM) | 59.4% | 0.0244 µg/mL (≈ 0.0757 µM) | 5.7 ng/mL | 120.7% | 0.0007 µg/mL | 0.0039 ± 0.0001 µg/mL (≈ 0.0121 µM) | –
2 | CCOP(=S)(OCC)O/N=C(\C#N)c1ccccc1 [Phoxim] | 0.2% | 0.4336 µg/mL | 2.5779 ± 0.0721 µg/mL (≈ 8.64 µM) | > 100 µg/mL | – | 5.9% | 0.2441 µg/mL (≈ 0.818 µM) | 49.5 ng/mL | 0.2% | 0.4354 µg/mL | 2.6524 ± 0.112 µg/mL (≈ 8.89 µM) | –
3 | COP(=S)(OC)Oc1ccc(S(=O)(=O)N(C)C)cc1 [Famphur] | 339.6% | 0.0004 µg/mL | 0.0015 ± 0.0001 µg/mL (≈ 0.00461 µM) | 58.2157 µg/mL (≈ 179 µM) | – | 4.2% | 0.3464 µg/mL (≈ 1.06 µM) | 80.3 ng/mL | 347.8% | 0.0003 µg/mL | 0.0013 ± 0.0001 µg/mL (≈ 0.004 µM) | –
4 | COP(=S)(OC)Oc1ccc([N+](=O)[O-])cc1 [Parathion-methyl] | 100.0% | 0.0009 µg/mL | 0.0051 ± 0.0002 µg/mL (≈ 0.0194 µM) | 0.0037 µg/mL (≈ 0.0141 µM) | 0.58 µg/mL (≈ 2.2 µM) | 100.0% | 0.0145 µg/mL (≈ 0.0551 µM) | 2.0 ng/mL | 100.0% | 0.0009 µg/mL | 0.0047 ± 0.0003 µg/mL (≈ 0.0179 µM) | 0.4389 µg/mL (≈ 1.67 µM)
5 | COc1nn(CSP(=S)(OC)OC)c(=O)s1 [Methidathion] | 157.6% | 0.0006 µg/mL | 0.0032 ± 0.0002 µg/mL (≈ 0.0106 µM) | – | – | < 0.3% | > 5 µg/mL | – | 162.9% | 0.0006 µg/mL | 0.0029 ± 0.0001 µg/mL (≈ 0.00959 µM) | 0.1917 µg/mL (≈ 0.634 µM)
6 | CCOC(=O)CC(SP(=S)(OC)OC)C(=O)OCC (centres unmarked) [Malathion] | – | – | – | > 100 µg/mL | 10.47 µg/mL (≈ 31.7 µM) | – | – | – | – | – | – | 0.0301 µg/mL (≈ 0.0911 µM)
7 | COP(=O)(OC)OC=C(Cl)Cl [Dichlorvos] | 3.5% | 0.0312 µg/mL | 0.1454 ± 0.0038 µg/mL (≈ 0.658 µM) | > 100 µg/mL | – | 0.8% | 1.8279 µg/mL (≈ 8.27 µM) | 437.2 ng/mL | 3.5% | 0.024 µg/mL | 0.1321 ± 0.0061 µg/mL (≈ 0.598 µM) | –
8 | COP(=S)(OC)SCN1C(=O)c2ccccc2C1=O [Phosmet] | 332.9% | 0.0003 µg/mL | 0.0015 ± 0.0001 µg/mL (≈ 0.00473 µM) | – | – | < 0.3% | > 5 µg/mL | – | 323.6% | 0.0003 µg/mL | 0.0014 ± 0.0001 µg/mL (≈ 0.00441 µM) | 0.1597 µg/mL (≈ 0.503 µM)
9 | CCOP(=S)(OCC)Oc1ccc([N+](=O)[O-])cc1 [Parathion] | 0.2% | 0.4392 µg/mL | 2.3284 ± 0.0514 µg/mL (≈ 7.99 µM) | 0.0113 µg/mL (≈ 0.0388 µM) | – | 8.9% | 0.1636 µg/mL (≈ 0.562 µM) | 17.5 ng/mL | 0.2% | 0.4663 µg/mL | 2.4125 ± 0.061 µg/mL (≈ 8.28 µM) | > 1 µg/mL
10 | COP(=S)(OC)Oc1ccc(C#N)cc1 [Cyanophos] | 146.2% | 0.0007 µg/mL | 0.0035 ± 0.0001 µg/mL (≈ 0.0144 µM) | 0.0203 µg/mL (≈ 0.0835 µM) | – | 82.5% | 0.0176 µg/mL (≈ 0.0724 µM) | 2.3 ng/mL | 152.8% | 0.0006 µg/mL | 0.0031 ± 0.0002 µg/mL (≈ 0.0127 µM) | –
11 | COP(=S)(OC)Oc1ccc([N+](=O)[O-])c(C)c1 [Fenitrothion] | 104.1% | 0.0012 µg/mL | 0.0049 ± 0.0002 µg/mL (≈ 0.0177 µM) | 0.0089 µg/mL (≈ 0.0321 µM) | 3.54 µg/mL (≈ 12.8 µM) | 180.2% | 0.0081 µg/mL (≈ 0.0292 µM) | 1.2 ng/mL | 107.1% | 0.0011 µg/mL | 0.0044 ± 0.0003 µg/mL (≈ 0.0159 µM) | 0.324 µg/mL (≈ 1.17 µM)
12 | COP(=S)(OC)Oc1c(Cl)cc(C)cc1Cl [Tolclofos-methyl] | 61.3% | 0.0017 µg/mL | 0.0083 ± 0.0004 µg/mL (≈ 0.0276 µM) | > 100 µg/mL | 1.1 µg/mL (≈ 3.65 µM) | 46.2% | 0.0314 µg/mL (≈ 0.104 µM) | 9.5 ng/mL | 70.2% | 0.0012 µg/mL | 0.0066 ± 0.0003 µg/mL (≈ 0.0219 µM) | –
13 | COP(=O)(OC)Oc1ccc([N+](=O)[O-])cc1 [Paraoxon-methyl] | 1.7% | 0.0632 µg/mL | 0.2949 ± 0.0093 µg/mL (≈ 1.19 µM) | 0.1187 µg/mL (≈ 0.48 µM) | – | 0.5% | 2.6433 µg/mL (≈ 10.7 µM) | 512.5 ng/mL | 2.0% | 0.0524 µg/mL | 0.231 ± 0.0121 µg/mL (≈ 0.935 µM) | –
14 | COP(=S)(OC)Oc1ccc(SC)c(C)c1 [Fenthion] | 21.6% | 0.0044 µg/mL | 0.0234 ± 0.0017 µg/mL (≈ 0.0841 µM) | > 100 µg/mL | 1.21 µg/mL (≈ 4.35 µM) | 303.6% | 0.0048 µg/mL (≈ 0.0172 µM) | 0.9 ng/mL | 32.1% | 0.003 µg/mL | 0.0145 ± 0.0011 µg/mL (≈ 0.0521 µM) | 0.7889 µg/mL (≈ 2.83 µM)
